# Test results taken from ChEMBL document CHEMBL1201862, “PubChem BioAssay data set” (2004).
#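 In this assay, cells in 96-well plates receive the compound at five concentrations for 48 hours. Endpoints are linearly interpolated between the surrounding concentrations. GI50 = concentration required for 50% inhibition of growth.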 Active and inactive are the calls of the source. Cut-off read from the data, not from the text of the source: active = GI50 up to about 1.1 µM and inactive = higher.
# Experiments:
# Assay in all cases: NCI anticancer screen, dose series, 48 h
# 786-0 = test system: 786-0
# A549 = test system: A549
# ACHN = test system: ACHN
# CAKI-1 = test system: CAKI-1
# COLO 205 = test system: COLO 205
# DLD-1 = test system: DLD-1
# DMS-114 = test system: DMS-114
# DMS-273 = test system: DMS-273
# EKVX = test system: EKVX
# HCC 2998 = test system: HCC 2998
# HCT-116 = test system: HCT-116
# HCT-15 = test system: HCT-15
# HOP-18 = test system: HOP-18
# HOP-62 = test system: HOP-62
# HOP-92 = test system: HOP-92
# HT-29 = test system: HT-29
# KM-20L2 = test system: KM-20L2
# KM12 = test system: KM12
# LOX IMVI = test system: LOX IMVI
# LXFL 529 = test system: LXFL 529
# M14 = test system: M14
# M19-MEL = test system: M19-MEL
# MOLT-4 = test system: MOLT-4
# Malme-3M = test system: Malme-3M
# NCI-H226 = test system: NCI-H226
# NCI-H23 = test system: NCI-H23
# NCI-H460 = test system: NCI-H460
# NCI-H522 = test system: NCI-H522
# OVCAR-3 = test system: OVCAR-3
# OVCAR-4 = test system: OVCAR-4
# OVCAR-5 = test system: OVCAR-5
# OVCAR-8 = test system: OVCAR-8
# RPMI-8226 = test system: RPMI-8226
# RXF 393 = test system: RXF 393
# SF-268 = test system: SF-268
# SF-295 = test system: SF-295
# SF-539 = test system: SF-539
# SK-MEL-28 = test system: SK-MEL-28
# SK-MEL-2 = test system: SK-MEL-2
# SK-MEL-5 = test system: SK-MEL-5
# SK-OV-3 = test system: SK-OV-3
# SN12C = test system: SN12C
# SNB-19 = test system: SNB-19
# SNB-75 = test system: SNB-75
# SNB-78 = test system: SNB-78
# SW-620 = test system: SW-620
# TK-10 = test system: TK-10
# U-251 = test system: U-251
# UACC-257 = test system: UACC-257
# UACC-62 = test system: UACC-62
# UO-31 = test system: UO-31
# XF498 = test system: XF498
smiles,measurement,setting,value
CCOC(=O)C(c1ccsc1)P(=O)(OCC)OCC (configuration not stated),GI50,786-0,16.3 µM (inactive)
same,GI50,A549,22.4 µM (inactive)
same,GI50,ACHN,19.6 µM (inactive)
same,GI50,CAKI-1,14.1 µM (inactive)
same,GI50,COLO 205,13.3 µM (inactive)
same,GI50,DLD-1,12.8 µM (inactive)
same,GI50,DMS-114,13.8 µM (inactive)
same,GI50,DMS-273,13.2 µM (inactive)
same,GI50,EKVX,23.9 µM (inactive)
same,GI50,HCC 2998,19.5 µM (inactive)
same,GI50,HCT-116,11.5 µM (inactive)
same,GI50,HCT-15,15 µM
same,GI50,HOP-18,28.3 µM (inactive)
same,GI50,HOP-62,28.1 µM (inactive)
same,GI50,HOP-92,24.3 µM (inactive)
same,GI50,HT-29,15.9 µM (inactive)
same,GI50,KM-20L2,14.5 µM (inactive)
same,GI50,KM12,13.4 µM (inactive)
same,GI50,LOX IMVI,6.5 µM (inactive)
same,GI50,LXFL 529,12 µM (inactive)
same,GI50,M14,12.9 µM (inactive)
same,GI50,M19-MEL,11.2 µM (inactive)
same,GI50,MOLT-4,> 100 µM (inactive)
same,GI50,Malme-3M,23.2 µM (inactive)
same,GI50,NCI-H226,18.4 µM (inactive)
same,GI50,NCI-H23,16 µM (inactive)
same,GI50,NCI-H460,14.9 µM (inactive)
same,GI50,NCI-H522,3.89 µM (inactive)
same,GI50,OVCAR-3,13.7 µM (inactive)
same,GI50,OVCAR-4,28.7 µM (inactive)
same,GI50,OVCAR-5,23.1 µM (inactive)
same,GI50,OVCAR-8,16.6 µM (inactive)
same,GI50,RPMI-8226,9.4 µM (inactive)
same,GI50,RXF 393,13.1 µM (inactive)
same,GI50,SF-268,23.2 µM (inactive)
same,GI50,SF-295,17.3 µM (inactive)
same,GI50,SF-539,14.2 µM (inactive)
same,GI50,SK-MEL-28,15.1 µM (inactive)
same,GI50,SK-MEL-2,20 µM (inactive)
same,GI50,SK-MEL-5,15.7 µM (inactive)
same,GI50,SK-OV-3,23 µM (inactive)
same,GI50,SN12C,13.3 µM (inactive)
same,GI50,SNB-19,21.5 µM (inactive)
same,GI50,SNB-75,24.1 µM (inactive)
same,GI50,SNB-78,12.6 µM (inactive)
same,GI50,SW-620,15.4 µM (inactive)
same,GI50,TK-10,25.4 µM (inactive)
same,GI50,U-251,17.9 µM (inactive)
same,GI50,UACC-257,15.4 µM (inactive)
same,GI50,UACC-62,8.22 µM (inactive)
same,GI50,UO-31,15 µM (inactive)
same,GI50,XF498,20.9 µM (inactive)
